# “And” between values parts separate entries of the source, which are not always exact repeats. Identical values can stand only once.
# Tested on: GK rats
# Test: 13C-labeled OGTT, 13C metabolites in liver and skeletal muscle
# Type: in vivo, rat
# Conditions: for 13C Labeled Metabolite, Ala C3 / 13C Labeled Metabolite, G6P C1 / 13C Labeled Metabolite, Glyc C1 / 13C Labeled Metabolite, Lac C3: [1-13C] glucose, acute treatment, individual animals
# Protocol: GK rat OGTT procedures were followed as above. Animals were treated PO at 5 ml/kg with MK-2305 at 10 mg/kg or vehicle at time = -60 min. At time = 0, animals were challenged PO at 10 ml/kg dose volume with [1-^13C] glucose prepared in distilled water at 1 g/kg (Sigma-Aldrich). Blood glucose was measured pre-treatment and at t = 0, 20, 40, 60, 120 minutes post challenge. Following the blood glucose measurement at time = 120 min, animals were anesthetized with Isoflurane (Isothesia, Henry Schein, Dublin, OH) and samples of liver and skeletal muscle were collected. Tissue samples were processed using a methanol/water based extraction procedure as follows. Frozen tissue was weighed and added to tubes containing 80% methanol at a ratio of 100 mg tissue per mL 80% methanol. The samples were homogenized at 4°C using a Polytron homogenizer equipped with a 12 mm stainless steel head. Samples were then centrifuged at 25,000 rcf for 10 min at 4°C, the supernatant collected, and the pellet extracted again using an equivalent volume of 80% methanol. The supernatants from both extractions were pooled and the methanol evaporated under nitrogen. The samples were then reconstituted in 180 μl 0.1M sodium phosphate in D2O (pH 7.4) for NMR analysis. ^13C NMR of tissue extracts was performed on a 600 MHz Bruker NMR spectrometer (David H. Murdock Research Institute) using the following parameters: 45° pulse, D1 = 0.2 sec, NS = 3200 averages, ^1H broadband decoupling (WALTZ-16), acquisition time ~45 min. […] These NMR signals were integrated and converted to absolute units (μmoles) using ^13C NMR spectra from standard solutions of each metabolite of known concentration acquired under identical conditions. Glycogen is a primary site of glucose disposal in both liver and muscle, however glycogen was not preserved in our tissue extraction protocol. To quantify tissue ^13C-glycogen, a separate piece of tissue from each sample was analyzed. Briefly, tissue samples were saponified in hot KOH, and this was followed by glycogen precipitation with NaSO4 and ethanol, and then degradation with amyloglucosidase. The resulting glycogen-derived glucose solution was analyzed for total glucose using a glucose oxidase / horseradish peroxidase assay kit and fluorescence-based product detection according to the manufacturers’ instructions (BioVision Glycogen Assay Kit, Milpitas, CA).
# [1] = 10 mg/kg PO, [1-13C] glucose OGTT, GK rats
compound,measurement,setting,value
O=C1NC(=O)C(C2CCOc3cc(Oc4ccc(C(F)(F)F)cc4Cl)ccc32)S1 (stereo not shown) [MK-2305],"effect on disposal of 13C-glucose into 13C-G6P, 13C-glycogen, 13C-lactate and 13C-alanine in liver",[1],significant decreases
same,effect on disposal of 13C-glucose into metabolites in muscle,[1],no significant effects
same,"13C Labeled Metabolite, Ala C3",,0.07795 umoles/g liver and 0.1076 umoles/g liver and 0.03915 umoles/g liver and 0.01144 umoles/g liver and 0.01402 umoles/g liver and 0.02433 umoles/g liver and 0.05001 umoles/g liver and 0.007673 umoles/g liver
same,"13C Labeled Metabolite, G6P C1",,0.02684 umoles/g liver and 0.01164 umoles/g liver and 0.007287 umoles/g liver and 0.01533 umoles/g liver and 0.00988 umoles/g liver and 0.01421 umoles/g liver and 0.01349 umoles/g liver and 0.0107 umoles/g liver
same,"13C Labeled Metabolite, Glyc C1",,1.292 umoles/g liver and 0.3555 umoles/g liver and 0.1582 umoles/g liver and 0.4672 umoles/g liver and 0.1107 umoles/g liver and 0.1399 umoles/g liver and 0.3766 umoles/g liver and 0.2884 umoles/g liver
same,"13C Labeled Metabolite, Lac C3",,0.03897 umoles/g liver and 0.06288 umoles/g liver and 0.02257 umoles/g liver and 0.01974 umoles/g liver and 0.01299 umoles/g liver and 0.02143 umoles/g liver and 0.0406 umoles/g liver and 0.007673 umoles/g liver
same,"13C Labeled Metabolite, Ala C3",skeletal muscle,0.1279 umoles/g muscle and 0.07989 umoles/g muscle and 0.1157 umoles/g muscle and 0.07123 umoles/g muscle
same,"13C Labeled Metabolite, G6P C1",skeletal muscle,0.05019 umoles/g muscle and 0.01903 umoles/g muscle and 0.04767 umoles/g muscle and 0.01045 umoles/g muscle and 0.004493 umoles/g muscle and 0.01768 umoles/g muscle and 0.003514 umoles/g muscle
same,"13C Labeled Metabolite, Glyc C1",skeletal muscle,0.2857 umoles/g muscle and 0.133 umoles/g muscle and 1.635 umoles/g muscle and 0.328 umoles/g muscle and 0.06707 umoles/g muscle and 0.1828 umoles/g muscle and 0.4005 umoles/g muscle
same,"13C Labeled Metabolite, Lac C3",skeletal muscle,0.2756 umoles/g muscle and 0.03448 umoles/g muscle and 0.06757 umoles/g muscle and 0.07739 umoles/g muscle and 0.08426 umoles/g muscle

# Source: publication PMC5441580, “GPR40 partial agonist MK-2305 lower fasting glucose in the Goto Kakizaki rat via suppression of endogenous glucose production” (PLoS ONE, 2017)
